IC50 data for 67 molecules are collected here from PubChem BioAssay AID2401 (Southern Research Specialized Biocontainment Screening …, 2010).

Molecules are shown by their SMILES. A value given as a limit tells only on which side of the number the result lay.

The experiment relates to S. Typhimurium GFP reporter counter-screen, fluorescence, 4 h. Kind of experiment: nmpC-GFP reporter counter-screen in S. Typhimurium, dose response, counter-screen for PhoP regulon inhibitor project, Salmonella Typhimurium, GFP fluorescence (AID 2401;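 note: S. typhimurium with Mg-insensitive nmpC-GFP reporter grown at 10 µM Mg2+; drop in reporter fluorescence reflects general culture growth inhibition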). (In general: Counterscreens check selectivity or assay interference.)
Consider `O=[N+]([O-])c1ccc(-c2ccn[nH]2)o1`, for which the IC50 (as a rule, the midpoint of a concentration-inhibition curve) is 39.8 µM.

Consider `C1=C(CCNCc2ccccc2)CCCC1`, for which the IC50 is 7.93 µM.

For `Cc1ccc(S(=O)(=O)Nc2cc(Cl)c(O)c3ncccc23)cc1`, the IC50 is 29 µM.

With `COc1ccc(CN2C(=O)Cc3c2nc(N)c2c(N)nc(N4CCCCC4)c(C#N)c32)cc1`, the IC50 is 120 µM.

Turning to `C[C@H]1O[C@@H](n2cc(F)c(=O)[nH]c2=O)[C@H](O)[C@@H]1O`, the IC50 is 38.6 µM.

As to `Nc1ncn(C2O[C@H](CO)[C@@H](O)[C@H]2O)c(=O)n1` (some centres not stated), the IC50 was 30.8 µM.

Turning to `CO/N=C(/C(=O)N[C@@H]1C(=O)N2C(C(=O)O)=CCS[C@H]12)c1cnc(N)s1`, the IC50 is 18.4 µM.

`NC1=NC[C@H](Cc2ccccc2)N1CCCCC1CCCCC1`: the IC50 is 45.9 µM.

With `CC(=O)Oc1cc2cccc(OC(C)=O)c(=O)c2c(OC(C)=O)c1OC(C)=O`, the IC50 is 62.8 µM.

As for `O=C1c2ccccc2C(=O)c2[nH]c(=O)[nH]c21`, the IC50 is 6.67 µM.

`CCCOc1ccc(C(=O)NC(=S)N2CCN(c3cc4c(cc3F)c(=O)c(C(=O)O)cn4CC)CC2)cc1`: the IC50 is 56.5 µM.

With `CCCc1nnc(NC(=O)c2cn(CC)c3cc(N4CCN(C)CC4)c(F)cc3c2=O)s1`, the IC50 is 117 µM.

For `O=c1cc2oc3cc(O)c(O)cc3c(-c3ccccc3[N+](=O)[O-])c-2cc1O`, the half-maximal inhibitory concentration (IC50) is 28.5 µM.

Take `COc1ccc(Nc2cc(C)nc(NCc3ccccc3)n2)cc1`: the IC50 was 111 µM.

Regarding `CCn1cc(C(=O)NCCN(C)C)c(=O)c2cc(F)c(N3CCN(C)CC3)cc21`, the IC50 is 89.8 µM.

With `CO[C@@]1(NC(=O)C2SC(=C(C(N)=O)C(=O)O)S2)C(=O)N2C(C(=O)O)=C(CSc3nnnn3C)CS[C@@H]21` (some centres not stated), the IC50 is 26.9 µM.

Regarding `Cc1ccc(-c2c[n+](CC(=O)Nc3nc(-c4ccc(F)cc4)cs3)c3n2CCC3)cc1`, the IC50 was 42.3 µM.

For `CCCCCN=C(N)N/N=C/c1c[nH]c2ccc(OC)cc12`, the IC50 is 37 µM.

As for `C#CCOCCOCCOCCNc1nc(N2CCN(C(=O)CCCCCCCCCCNC(=O)[C@H](CO)n3cc(CCCCCN)nn3)CC2)nc(N2CCN(C(=O)CCCCCCCCCCNC(=O)[C@H](CCCN=C(N)N)n3cc(C[C@@H](C)CC)nn3)CC2)n1`, the concentration for half-maximal inhibition (IC50) is 86.2 µM.

On to `C(=N\Nc1ccccn1)/c1cccnc1`, for which the IC50 is 21.5 µM.

Regarding `O=C(O)c1cc(O)c2c(c1)[C@@H]([C@H]1c3cc(C(=O)O)cc(O)c3C(=O)c3c(O[C@@H]4O[C@H](CO)[C@@H](O)[C@H](O)[C@H]4O)cccc31)c1cccc(OC3O[C@H](CO)[C@@H](O)[C@H](O)[C@H]3O)c1C2=O` (some centres not stated), the IC50 was 83.6 µM.

On to `Oc1ccc(N=Cc2ccc(O)c(O)c2)cc1`, for which the IC50 was 118 µM.

Turning to `CCCCCC(CC(=O)NO)C(=O)NC(C(=O)N1CCCC1CO)C(C)C` (configuration not stated), the IC50 is 144 µM.

Regarding `NC1CCN(c2c(F)cc3c(=O)c(C(=O)O)cn(C4CC4)c3c2Cl)C1` (configuration not stated), the IC50 was below 0.23 µM.

`Oc1cccc(/C=N/NC(=S)Nc2cccnc2)c1O`: the IC50 was 28.5 µM.

Take `COc1ccc(OCc2n(CC(=O)OC3CC(C)CCC3C(C)C)c3ccccc3[n+]2C)cc1` (configuration not stated): the IC50 was 39.6 µM.

Turning to `CCn1cc(C(=O)NCCCN(C)C)c(=O)c2cc(F)c(N3CCN(C)CC3)cc21`, the IC50 is 86.9 µM.

With `CN1CCN(C(c2ccc(Br)cc2)c2cc(Cl)c3cccnc3c2O)CC1` (configuration not stated), the IC50 was 19.8 µM.

For the molecule `Oc1c(I)cc(Cl)c2cccnc12`, the IC50 was 8.56 µM.

As for `Cc1conc1NC(c1cccs1)c1ccc2cccnc2c1O` (configuration not stated), the IC50 is 25.1 µM.

For `COc1ccc(C(=O)N/N=C/c2sc3ccccc3c2O)cc1`, the IC50 is 41.5 µM.

Take `O=Cc1ccc(O)c2ncccc12`: the IC50 was 8.12 µM.

Consider `CCCCCCCCn1c2c(c(=N)c3ccccc31)CCC2`, for which the IC50 is 38.9 µM.

`O=S1(=O)Nc2c(ccc3cccnc23)-c2ccccc21`: the IC50 is 2.73 µM.

Regarding `Cc1ccc(Nc2nc(N)c3ccccc3n2)cc1Cl`, the IC50 is 52.2 µM.

For the molecule `O=C1OC(/C(=C\Nc2ccc(F)cc2F)[N+](=O)[O-])c2ccccc21` (configuration not stated), the IC50 is 61.1 µM.

On to `O=C1c2ccccc2NC(c2ccc(-c3cccc(Cl)c3)o2)N1O` (configuration not stated), for which the IC50 was 52.2 µM.

As for `CCc1ccc(-c2nn(-c3ccccc3)cc2CSC(=N)N)cc1`, the IC50 was 53.1 µM.

Turning to `CCCOc1ccc(Br)cc1CSC(=N)N`, the IC50 was 134 µM.

On to `OCCNCc1c(OCc2ccc(Cl)cc2)ccc2ccccc12`, for which the IC50 is 90 µM.

For `Cc1ccc(C(C[N+](=O)[O-])c2c(C)cc3ccccn23)cc1` (configuration not stated), the IC50 is 65 µM.

With `CCCCNC(=O)c1cn(CC)c2cc(N3CCN(C)CC3)c(F)cc2c1=O`, the IC50 is 41.8 µM.

With `O=[N+]([O-])/C=C/c1cc2ccccc2[nH]1`, the IC50 is 138 µM.

`O=[N+]([O-])c1cc(/C=N/Nc2nc3ccccc3[nH]2)c(O)cc1O`: the IC50 is 18.2 µM.

On to `COc1c(N2CCN(C(=S)NC3CC4CCC3C4)C(C)C2)c(F)cc2c(=O)c(C(=O)O)cn(C3CC3)c12` (configuration not stated), for which the IC50 is 72.9 µM.

For `O=C(N[C@H](CO)[C@H](O)c1ccc([N+](=O)[O-])cc1)C(Cl)Cl`, the IC50 is 9.59 µM.

In the case of `COc1ccccc1CNCCc1ccc(F)cc1`, the IC50 was 35 µM.

With `CN(C)[C@@H]1C(=O)C(C(N)=O)=C(O)[C@@]2(O)C(=O)C3=C(O)c4c(O)cccc4[C@@](C)(O)C3[C@H](O)C12` (some centres not stated), the IC50 is 0.79 µM.

As for `CCn1cc(C(=O)O)c(=O)c2cc(F)c(N3CCN(C(=S)NC(=O)c4ccc(OC)cc4)CC3)cc21`, the half-maximal inhibitory concentration (IC50) is 29.4 µM.

As for `OCc1ccc(O)c2ncccc12`, the IC50 was 123 µM.

As for `C[C@H]1COc2c(N3CCN(C)CC3)c(F)cc3c(=O)c(C(=O)O)cn1c23`, the IC50 is 0.37 µM.

In the case of `O=C(Nc1ccccc1)Nc1ccc(Cl)c([N+](=O)[O-])c1`, the IC50 is 42.4 µM.

Consider `CC(Cc1ccccc1)NCc1ccccc1O` (configuration not stated), for which the IC50 is 28.2 µM.

In the case of `CC(C)C(=O)NC(c1cccc([N+](=O)[O-])c1)c1ccc2cccnc2c1O` (configuration not stated), the IC50 was 51.7 µM.

In the case of `Cc1ccccc1NC(=O)CCC(=O)N/N=C/c1cc([N+](=O)[O-])ccc1O`, the IC50 was 48.6 µM.

With `COc1c(N2CCN(C(=S)Nc3ccc(F)cc3)C(C)C2)c(F)cc2c(=O)c(C(=O)O)cn(C3CC3)c12` (configuration not stated), the half-maximal inhibitory concentration (IC50) was 15.7 µM.

With `CCCCCOc1ccc(Br)cc1CSC(=N)N`, the IC50 was 61.1 µM.

As for `COc1cc([N+](=O)[O-])cc(/C=N\NC(=O)C2COc3ccccc3O2)c1O` (configuration not stated), the IC50 was 85.3 µM.

As to `Clc1ccc(-c2c[n+](Cc3ccc(Cl)cc3Cl)c3n2CCCCC3)cc1`, the IC50 was 98.8 µM.

With `C[C@H]1c2cccc(O)c2C(O)=C2C(=O)[C@]3(O)C(O)=C(C(N)=O)C(=O)[C@@H](N(C)C)[C@@H]3[C@@H](O)[C@@H]21`, the IC50 was 2.87 µM.

As to `CN1CCN(C(c2ccc(Cl)cc2)c2cc(Cl)c3cccnc3c2O)CC1` (configuration not stated), the IC50 was 33.5 µM.

As for `Cc1cc(C)c2ccc(N)nc2c1O`, the IC50 was 35.7 µM.

Consider `O=[N+]([O-])c1ccc(N/N=C/c2ccc[nH]2)cc1`, for which the IC50 is 62 µM.

For `Cc1ccc(Cn2c(=N)n(CC(=O)c3ccc([N+](=O)[O-])cc3)c3ccccc32)cc1`, the IC50 was 103 µM.

For `Oc1c(C(Nc2ccccn2)c2ccccn2)ccc2cccnc12` (configuration not stated), the IC50 was 40.2 µM.

As to `CC(C)COc1ccc(Cc2cnc(N)nc2N)cc1`, the IC50 was 61.8 µM.

Consider `COc1c(N2CCN[C@H](C)C2)c(F)cc2c(=O)c(C(=O)O)cn(C3CC3)c12`, for which the IC50 is 0.78 µM.
